Assay: Inhibition of human 11-beta HSD in microsomes from HEK293 cells by SPA method

| Compound | IC50 |
| --- | --- |
| CC1CCN(C(=O)c2cccc(COc3c(Cl)cccc3Cl)n2)CC1 | 79 nM |
| CC1CCN(C(=O)c2cccc(CSc3c(Cl)cccc3Cl)n2)CC1 | 7.2 nM |
| O=C(c1cncc(CS(=O)(=O)c2c(Cl)cccc2Cl)c1)N1CCCCCC1 | 21 nM |
| O=C(c1cncc(CS(=O)(=O)c2c(Cl)cccc2Cl)c1)N1CCCC1 | 2140 nM |
| O=C(c1cccc(-c2ccc(C(F)(F)F)cc2)n1)N1CCCC2CCCCC21 (stereo unspecified) | 3.6 nM |
| O=C(c1cccc(COc2c(Cl)cccc2Cl)n1)N1CCCC2CCCCC21 (stereo unspecified) | 4.6 nM |
| CC1(C)C[C@H]2C[C@](C)(CN2C(=O)c2cncc(COc3c(Cl)cccc3Cl)c2)C1 | 1.7 nM |
| CC1(C)CCCN(C(=O)c2cccc(-c3ccc(OC(F)(F)F)cc3)n2)C1 | 1.1 nM |
| CC1CCN(C(=O)c2cccc(Oc3ccccc3Cl)n2)CC1 | 282 nM |
| CC1CCN(C(=O)c2cccc(Nc3ccccc3Cl)n2)CC1 | 381 nM |
| CC1CCN(C(=O)c2ccc(CSc3ccc(Cl)cc3)cc2)CC1 | 235 nM |
| CC1CCN(C(=O)c2ccnc(CS(=O)(=O)c3c(Cl)cccc3Cl)c2)CC1 | 106 nM |
| CC1CCN(C(=O)c2cc(CS(=O)(=O)c3c(Cl)cccc3Cl)ccn2)CC1 | 319 nM |
| CC1(C)CCCN(C(=O)c2cccc(-c3ccccc3Cl)n2)C1 | 2.9 nM |
| CC1CCN(C(=O)c2cncc(CS(=O)(=O)c3c(Cl)cccc3Cl)c2)CC1 | 22 nM |
| CC1(C)CCCN(C(=O)c2cccc(COc3c(Cl)cc(Cl)cc3Cl)n2)C1 | 6.5 nM |

| Compound | IC50 |
| --- | --- |
| O=C(c1cccc(-c2ccccc2-c2ccccc2)n1)N1CCCC2CCCCC21 (stereo unspecified) | 4.7 nM |
| O=C(c1cncc(COc2c(Cl)cccc2Cl)c1)N1CCCCC1c1cccnc1 (stereo unspecified) | 2 nM |
| O=C(c1cccc(-c2ccccc2[N+](=O)[O-])n1)N1CCCC2CCCCC21 (stereo unspecified) | 2 nM |
| CC1(C)CCCN(C(=O)c2cccc(-c3ccc(Cl)cc3)n2)C1 | 1.1 nM |
| CC1CCN(C(=O)c2cccc(Sc3ccccc3Cl)n2)CC1 | 218 nM |
| NC(=O)C1CCN(C(=O)c2cncc(CS(=O)(=O)c3c(Cl)cccc3Cl)c2)CC1 | 2350 nM |
| O=C(c1cncc(CS(=O)(=O)c2c(Cl)cccc2Cl)c1)N1CCOCC1 | > 10000 nM |
| Cc1ccc(-c2cccc(C(=O)N3CCCC(C)(C)C3)n2)cc1F | 0.1 nM |
| O=C(c1cncc(CS(=O)(=O)c2c(Cl)cccc2Cl)c1)N1CCCCC1 | 220 nM |
| CC1CCN(C(=O)c2ccc(CS(=O)(=O)c3c(Cl)cccc3Cl)cn2)CC1 | 2130 nM |
| CC1CCN(C(=O)c2cccc(CS(=O)(=O)c3c(Cl)cccc3Cl)c2)CC1 | 13 nM |
| O=C(c1cncc(CS(=O)(=O)c2c(Cl)cccc2Cl)c1)N1CCCCCCC1 | 11 nM |
| O=C(c1cncc(CS(=O)(=O)c2c(Cl)cccc2Cl)c1)N1CCCCCCCC1 | 2.5 nM |
| CC1CCN(C(=O)c2ccc(CS(=O)(=O)c3c(Cl)cccc3Cl)nc2)CC1 | 2050 nM |
| CC1CCN(C(=O)c2cccc(S(=O)(=O)c3ccccc3Cl)n2)CC1 | 4670 nM |

From ChEMBL document CHEMBL1145557, “Pyridine amides as potent and selective inhibitors of 11beta-hydroxysteroid dehydrogenase type 1” (Bioorg Med Chem Lett, 2008)
